# Reference: patent US7553667B2, “Regulation of gene expression using chromatin remodelling factors” (Her Majesty the Queen in right of Canada as represented by …, priority 2002, dated 2009)
# T1: GST-Gcn5 (Arabidopsis thaliana, UniProt Q9AR19)
# T1 construct: made in house; host or cells: E. coli BL21-CodonPlus (DE3)-RP
# T1 sequence (Q9AR19 1-568): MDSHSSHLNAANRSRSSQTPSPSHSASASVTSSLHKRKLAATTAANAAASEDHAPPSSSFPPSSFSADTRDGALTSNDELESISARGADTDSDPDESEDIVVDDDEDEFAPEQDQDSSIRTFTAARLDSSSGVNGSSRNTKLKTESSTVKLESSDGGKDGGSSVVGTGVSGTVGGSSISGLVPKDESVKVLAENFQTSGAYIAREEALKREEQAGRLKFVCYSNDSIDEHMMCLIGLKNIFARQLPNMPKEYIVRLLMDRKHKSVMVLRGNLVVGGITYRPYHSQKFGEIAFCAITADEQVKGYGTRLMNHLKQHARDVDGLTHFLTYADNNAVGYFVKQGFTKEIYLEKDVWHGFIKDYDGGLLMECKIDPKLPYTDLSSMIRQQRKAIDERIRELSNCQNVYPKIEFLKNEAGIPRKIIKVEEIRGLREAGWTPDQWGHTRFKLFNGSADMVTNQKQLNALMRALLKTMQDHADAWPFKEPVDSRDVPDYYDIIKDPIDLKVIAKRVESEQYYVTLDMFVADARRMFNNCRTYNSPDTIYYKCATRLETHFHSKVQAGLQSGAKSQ
# T2: GST-HDA19 (Arabidopsis thaliana, UniProt O22446)
# T2 construct: made in house; host or cells: E. coli BL21-CodonPlus (DE3)-RP
# T2 sequence (O22446 1-501): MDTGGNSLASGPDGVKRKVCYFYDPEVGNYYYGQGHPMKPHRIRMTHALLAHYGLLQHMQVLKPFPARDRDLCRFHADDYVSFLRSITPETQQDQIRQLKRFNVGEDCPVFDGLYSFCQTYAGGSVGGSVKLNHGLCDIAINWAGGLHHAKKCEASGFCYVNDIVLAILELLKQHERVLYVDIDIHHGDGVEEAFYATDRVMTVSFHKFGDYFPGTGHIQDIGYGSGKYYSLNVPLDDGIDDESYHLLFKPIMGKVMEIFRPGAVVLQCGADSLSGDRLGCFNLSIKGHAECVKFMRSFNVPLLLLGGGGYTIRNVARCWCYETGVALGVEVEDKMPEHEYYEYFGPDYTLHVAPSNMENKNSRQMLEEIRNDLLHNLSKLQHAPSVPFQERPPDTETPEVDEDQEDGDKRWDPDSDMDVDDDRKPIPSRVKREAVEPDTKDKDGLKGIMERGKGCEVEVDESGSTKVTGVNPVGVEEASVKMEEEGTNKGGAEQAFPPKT
# Columns and labels:
# [1] = system: BnSCL1 gene expression; test: Quantitative one-step RT-PCR of BnSCL1 expression in treated seedlings; type: in vivo, Brassica napus
# Protocol: In exogenous applied auxin treatments, four-leaf stage seedlings grown at 20° C. were treated with a foliar spray containing 1 mM 2,4-D and 50 mM sodium phosphate, pH 7.5. The four leaves were collected at 30 min, 60 min and 180 min after the first foliar application of 2,4-D. For the measurement of response of shoots and roots to auxin, sterilized seeds were germinated on plates in a growth chamber with continuous light at 20° C., and 10 dpg seedlings were supplied with varied concentration of 2,4-D. In the auxin transport inhibition experiments, 9 dpg seedlings were incubated in the medium supplemented with 50 μM NPA dissolved in 0.1% DMSO for 24 h before the 2,4-D treatment. For the HDAC inhibitor treatments, 10 mM sodium butyrate was added onto the growth medium and incubated for 24 h followed by exogenous 2,4-D application at varied concentrations.
# Total RNA extracted as described above was treated with Amplification Grade Deoxyribonuclease I (GibcoL BRL) following the manufacture's instructions. The RNA samples were then directly used for reverse transcription prior to amplification without purification. The RT-PCR was quantitatively performed and completed in a one-step reaction using […] One-Step RT-PCR System (GibcoL BRL) as described by Gao et al. (2002). Gene-specific sense and anti-sense primers used to generate a 960 bp fragment of Brassica napus Actin, as an internal standard, were as described in Gao et al., (2002). Gene-specific primers for the generation of BnSCL1, BnIAA1 and BnIAA12 fragments were as follows: […]
# [2] = system: bnKCP1 expression; test: Northern blot of bnKCP1 expression in leaves of treated seedlings; type: in vivo, Brassica napus; details: for bnKCP1 transcript in leaves after treatment: four-leaf stage seedlings, room temperature, 10 μM inomycin or 20 mM LaCl3
# Protocol: Brassica napus L. cv Cascade (winter type), Westar (spring type) and DES010 (spring type) were used for the isolation of genomic DNA and total RNA. Leaves, flowers, stems, siliques and immature seeds were harvested from plants cultured in a controlled-environment greenhouse programmed for a photoperiod of 16 h day and 8 h night. Roots were obtained by culturing sterilized seeds in 0.8% agar plates containing ½ MS medium and 1% sucrose. For cold acclimation (4° C.), abscisic acid (250 μM), drought and high salt (850 mM NaCl) treatments, four-leaf stage seedlings were treated and fourth fully expanded leaf blades were harvested as described by Gao et al. (2002). LaCl3 and inomycin treatments were carried out by watering four-leaf stage plants with 20 mM LaCl3 and 10 μM inomycin, respectively. Plants were covered with SARAN Wrap to slow evaporation.
# Total RNA was isolated from the tissues of B. napus L. cv DES010. These included leaves and stems of four-leaf stage seedlings, flowers, immature siliques of adult plants, and roots of cultured seedlings as described by Gao et al. (2001). Probe labelling, hybridization, washing and membrane stripping were performed as described above in the Southern blot analysis Section.
# [3] = biological target: T1, GST-Gcn5; test: GST pulldown affinity assay of bnKCP1 and mutants with GST-Gcn5; type: binding; details: [35S]Met-labeled in vitro translated protein
# Excerpt: (§1) The full coding regions of the Arabidopsis HAT, Gcn5 (Dr. M. Thomashow, Michigan State University, MI), and HDA19 (Accession # AF195547) were PCR amplified, sequence analyzed and inserted in-frame with the GST (glutathione s-transferase) into the SalI and NotI sites of vector pGEX-6P-2 (Amersham Pharmacia). The forward used for the amplification of Gcn5 was:
# (§2) Recombinant pGEX-6P-2 plasmids were used to transform E. coli BL21-CodonPlus (DE3)-RP competent cells (Stratagene). Expression and purification under non-denaturing conditions were carried out as described by Gao et al. (Gao, M.-J. et al., 2002). The GST-Gcn5 and GST-HDA19 fusion proteins were analyzed by 7.5% SDS-PAGE (SDS-polyacrylamide gel electrophoresis) and western blotting with rabbit anti-GST-Pi polyclonal antibody (Chemicon) using ECL Western blotting analysis system (Amersham Pharmacia).
# (§3) Full-length bnKCP1 and truncated mutant bnKCP1^1-160 and bnKCP1^1-80 proteins labeled with [^35S]methionine were produced using TNT-Quick Coupled Transcription/Translation System (Promega) according to the manufacture's instructions, with some modifications. A total of 1 μl of RNase inhibitor (GibcoL BRL) and 1 μl of protease inhibitors set (Roche) were added to the lysate reaction. After incubation for 90 min at 30° C., RNase A was added to the reaction to a final concentration of 0.2 mg/ml and incubated for 5 min at the same temperature.
# In vitro protein interaction was detected with GST pulldown affinity assays as described by Ahmad et al. (1999) with some modifications. […] After washing six times with 1.2 ml of bead-binding buffer without BSA and EtBr but containing 12 μl of protease inhibitors set (Roche), the bound proteins were eluted with 30 μl of 2×SDS loading buffer, boiled for 2 min and analyzed by 12% SDS-PAGE. […]
# [4] = system: lacZ reporter gene driven by promoter containing GAL4 DNA binding sites; test: Transactivation assay of bnKCP1 using yeast one-hybrid system; type: cell-based, yeast MaV203; details: transactivation in yeast
# Excerpt: Effector plasmids pDBLeu-bnKCP1^1-160, pDBLeu-bnKCP1^1-80, pDBLeu-bnKCP1^81-215 and pDBLeu-bnKCP1 were constructed by ligating the PCR-amplified fragments ΔbnKCP1^1-160, ΔbnKCP1^1-80, ΔbnKCP1^81-215 and the coding region of bnKCP1 into the SalI/NotI sites of pDBLeu vector (GibcoL BRL) in-frame with the GAL4 DB sequence. The oligonucleotide primers for PCR amplification were as follows: […]
# The three reporter genes, lacZ, HIS3 and URA3, which were chromosomally integrated in the genome of MaV203 yeast cells were driven by unrelated promoters containing GAL4 DNA binding sites (GibcoL BRL). For transient assays, the effector constructs or the negative control vector pDBLeu were transferred to the MaV203 yeast cells. The β-galactosidase activity was measured using CPRG (chlorophenol red-β-D-galactopyranoside) according to the manufacturer's instructions (GibcoL BRL). The MaV203 cells containing plasmids pDBLeu-HDA19 and pPC86-bnKCP1 were used as the positive control. In addition, we used three yeast control strains A, B, and C (GibcoL BRL), which were developed to contain plasmid pairs expressing fusion proteins with none, weak and moderately strong protein-protein interaction strength, respectively. Transient Expression of the GUS-bnCKP1 Fusion Protein
# [5] = biological target: T2, GST-HDA19; test: GST pulldown affinity assay of bnKCP1 and mutants with GST-HDA19; type: binding; details: [35S]Met-labeled in vitro translated protein
# Excerpt: as §1, §2, §3
# In vitro protein interaction was detected with GST pulldown affinity assays as described by Ahmad et al. (1999) with some modifications. Briefly, 6 μg of GST or 4 μg of GST-fusion protein was incubated with 5 μl of [^35S]Met-labeled translation mixture in 200 μl of bead-binding buffer (50 mM K-phosphate, pH 7.6, 450 mM KCl, 10 mM MgCl2, 10% glycerol, 1% Triton X-100, 1% BSA and 1 μl of diluted 1:12 protease inhibitors set) for 1 h at room temperature. After incubation, 20 μl of 50% slurry of glutathione-Sepharose beads containing 10 mg/ml of BSA and 4 μg of EtBr was mixed with the reaction mixture followed by gentle rotation for 1 h at 4° C. After washing six times with 1.2 ml of bead-binding buffer without BSA and EtBr but containing 12 μl of protease inhibitors set (Roche), the bound proteins were eluted with 30 μl of 2×SDS loading buffer, boiled for 2 min and analyzed by 12% SDS-PAGE. After electrophoresis, the gels were dried, treated with Amplify (Amersham Pharmacia) and subjected to fluorography.
molecule,measurement,setting,value
"O=C(O)COc1ccc(Cl)cc1Cl [2,4-D]",BnSCL1 expression in roots,"[1]; 10 dpg seedlings, 100 μM required to produce an effect",upregulated
same,expression of BnSCL1 in shoots,"[1]; 10 dpg seedlings, even at the lowest level (1 pM)",rapidly downregulated
same,increase of BnSCL1 mRNA accumulation,"[1]; four-leaf stage seedlings, leaves, within 30 min of 1 mM foliar application, vs untreated plants",approximately 50%
"CC1=CC(=O)CC(C)(C)[C@@]1(O)/C=C/C(C)=C\C(=O)O [ABA, abscisic acid]",bnKCP1 expression in leaf blades after treatment,"[2]; exogenous application for up to 8 hours, data not shown",not detected
[Cl][La]([Cl])[Cl] [LaCl3],bnKCP1 transcript in leaves after treatment,[2],undetectable
"O=C(O)c1ccccc1C(=O)Nc1cccc2ccccc12 [NPA, naphthylphthalamic acid]",BnSCL1 mRNA accumulation profiles in response to auxin in shoots and roots,"[1]; 50 μM for 24 h before 2,4-D at different concentrations",not changed
inomycin,bnKCP1 transcript in leaves after treatment,[2],rapid (2 hrs) but short-lived
"ΔbnKCP1^1-160: C-terminal truncated mutant of bnKCP1, residues 1-160, lacking the KID domain (protein) MAGGGPTFSIELSAYGSDLPTDKASGDIPNEEGSGLSRVGSGIWSGRTVDYSSESSSSIGTPGDSEEEDEESEEDNDEEELGLASLRSLEDSLPSKGLSSHYKGKSKSFGNLGEIGSVKEVPKQENPLNKKRRLQIYNKLARKSFYSWQNPKSMPLLPVH",in vitro binding to GST-Gcn5,[3],no interaction
same,influence of deletion of KID or GKSKS domains on β-galactosidase activity,[4],no significant influence
same,in vitro binding to GST-HDA19,[5],no interaction
bnKCPG^188: bnKCP1 with S188 mutated to G188 by site-directed mutagenesis (protein) MAGGGPTFSIELSAYGSDLPTDKASGDIPNEEGSGLSRVGSGIWSGRTVDYSSESSSSIGTPGDSEEEDEESEEDNDEEELGLASLRSLEDSLPSKGLSSHYKGKSKSFGNLGEIGSVKEVPKQENPLNKKRRLQIYNKLARKSFYSWQNPKSMPLLPVHEDNDDEEGDDGDLSDEERGGDVLARRPGFKNRALKSMSCFALSDLQEEEEEEEDE,in vitro binding to GST-HDA19,[5],significantly reduced binding
"ΔbnKCP1^1-80: C-terminal truncated mutant of bnKCP1, residues 1-80, lacking the KID domain (protein) MAGGGPTFSIELSAYGSDLPTDKASGDIPNEEGSGLSRVGSGIWSGRTVDYSSESSSSIGTPGDSEEEDEESEEDNDEEE",in vitro binding to GST-Gcn5,[3],no interaction
same,influence of deletion of KID or GKSKS domains on β-galactosidase activity,[4],no significant influence
same,in vitro binding to GST-HDA19,[5],no interaction
